We go through 2 compounds from patent US9493436B2, “Tyrosine phosphatase inhibitors and uses thereof to modulate the activity of enzymes involved in the pathology of Mycobacterium tuberculosis” (priority 2011, dated 2016).

Where two headings read alike, the source gives them in different places.

For data set [1], the system named is ERK1/2 phosphorylation in Raw264.7 cells expressing mPTPB. Kind of data set: ERK phosphorylation in macrophage cells expressing mPTPB (western blot). Format: cell-based, mouse. Particulars: IFN-γ, L01Z08 especially at 120 and 240 nM. On the procedure: As explained above, ERK phosphorylation is important in the cellular secretion pathway of IL-6. However, mPTPB blocks or inhibits the phosphorylation of ERK which reduces and potentially prevents IL-6 secretion altogether.
Raw264.7 mouse macrophages were cultured in Dulbecco's modified Eagle's medium (DMEM) supplemented with 10% FBS (Invitrogen), penicillin (50 units/mL), and streptomycin (50 μg/mL) under a humidified atmosphere containing 5% CO2 at 37° C. Transfected Raw264.7 cells (Vector, WT-mPTPB) were seeded in a 12-well plate at a density of 4×10^4 cells/well. The following day cells were treated with mPTPB inhibitor 213a for 1 hr, then stimulated with IFN-γ (200 U/ml) for 1 h. […]. Wash with ice-cold phosphate buffered saline, and lysed with lysis buffer on ice for 30 min. Cell lysate is then cleared by centrifuging at 13,000 rpm for 15 min. The phosphorylation of ERK1/2 and Akt was detected by western blotting.
A general note: A western blot detects proteins with antibodies after separation by electrophoresis.

The target in the next data set is SHP1 (Homo sapiens, UniProt P29350). Format: biochemical.
The next data set concerns the target T1, TC-PTP (Homo sapiens, UniProt P17706).
T1 sequence (P17706 1-415): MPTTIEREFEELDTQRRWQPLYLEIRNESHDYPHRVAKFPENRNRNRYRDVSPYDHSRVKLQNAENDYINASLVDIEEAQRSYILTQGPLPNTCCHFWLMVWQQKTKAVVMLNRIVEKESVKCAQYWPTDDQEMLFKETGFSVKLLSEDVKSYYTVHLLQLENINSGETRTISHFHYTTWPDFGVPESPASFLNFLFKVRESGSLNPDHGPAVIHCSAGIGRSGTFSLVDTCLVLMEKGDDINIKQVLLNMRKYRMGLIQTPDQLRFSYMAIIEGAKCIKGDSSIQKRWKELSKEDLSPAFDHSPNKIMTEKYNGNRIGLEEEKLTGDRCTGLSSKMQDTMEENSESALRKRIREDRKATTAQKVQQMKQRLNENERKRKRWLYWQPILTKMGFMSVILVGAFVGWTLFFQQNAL
Briefly: PTP selectivity panel: TC-PTP. The format is biochemical. Particulars: read-out: IC50 (μM) TC-PTP.

Data set [2] in a line: Oral and intravenous pharmacokinetics in mice. The format is in vivo. On the procedure: Oral and intravenous (IV) pharmacokinetics were determined for compounds L01-Z06, L01-Z08 and L01-Z09 in mice. Drugs were administered by a single IV injection (5 mg/kg) or oral gavage (25 mg/kg) in 20% hydroxypropyl-b-cyclodextrin/2% diethanolamine and blood samples were collected at 0.5, 1, 3, 6, 9 and 24 hours later. All three compounds were readily administered by both IV and oral routes. […] Drug levels peaked at […] after IV injection, or […] after oral gavage. Based on these parameters, all three compounds are classified as highly permeable with moderate-slow clearance rates.

Data set [3] has as its system Caspase 3 activity in macrophage cells expressing mPTPB. The format is cell-based. Conditions: especially at 120 and 240 nM.
A further data set concerns the target T2, Lyp (Homo sapiens, UniProt Q9Y2R2).
T2 sequence (Q9Y2R2 1-807): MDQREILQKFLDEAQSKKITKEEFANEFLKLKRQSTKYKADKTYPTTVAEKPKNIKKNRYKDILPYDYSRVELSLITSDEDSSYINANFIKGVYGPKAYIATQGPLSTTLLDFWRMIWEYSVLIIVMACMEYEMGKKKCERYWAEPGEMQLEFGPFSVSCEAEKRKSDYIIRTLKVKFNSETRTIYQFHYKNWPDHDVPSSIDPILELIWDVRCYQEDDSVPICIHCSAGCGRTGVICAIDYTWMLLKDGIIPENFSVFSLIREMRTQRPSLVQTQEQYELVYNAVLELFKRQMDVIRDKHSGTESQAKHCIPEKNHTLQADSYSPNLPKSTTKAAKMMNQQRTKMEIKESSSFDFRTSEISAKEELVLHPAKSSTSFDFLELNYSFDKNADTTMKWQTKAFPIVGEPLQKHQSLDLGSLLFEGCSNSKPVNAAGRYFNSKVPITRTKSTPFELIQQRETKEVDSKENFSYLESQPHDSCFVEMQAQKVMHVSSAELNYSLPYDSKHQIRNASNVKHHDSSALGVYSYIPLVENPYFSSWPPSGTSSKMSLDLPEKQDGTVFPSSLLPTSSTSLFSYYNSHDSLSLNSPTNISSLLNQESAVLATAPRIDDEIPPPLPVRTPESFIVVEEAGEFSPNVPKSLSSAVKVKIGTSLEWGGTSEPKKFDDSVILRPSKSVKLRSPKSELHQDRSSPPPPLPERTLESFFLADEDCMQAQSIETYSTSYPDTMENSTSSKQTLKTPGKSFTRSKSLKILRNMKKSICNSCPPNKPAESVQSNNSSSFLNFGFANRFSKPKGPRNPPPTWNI
Briefly: biochemical. The format is biochemical.

Another data set has as its target mPTPA (Mycobacterium tuberculosis, UniProt P9WIA1). Kind of data set: PTP selectivity panel: mPTPA. The format is biochemical.
The target in the next data set is T3, HePTP (Homo sapiens, UniProt P35236).
T3 sequence (P35236 1-360): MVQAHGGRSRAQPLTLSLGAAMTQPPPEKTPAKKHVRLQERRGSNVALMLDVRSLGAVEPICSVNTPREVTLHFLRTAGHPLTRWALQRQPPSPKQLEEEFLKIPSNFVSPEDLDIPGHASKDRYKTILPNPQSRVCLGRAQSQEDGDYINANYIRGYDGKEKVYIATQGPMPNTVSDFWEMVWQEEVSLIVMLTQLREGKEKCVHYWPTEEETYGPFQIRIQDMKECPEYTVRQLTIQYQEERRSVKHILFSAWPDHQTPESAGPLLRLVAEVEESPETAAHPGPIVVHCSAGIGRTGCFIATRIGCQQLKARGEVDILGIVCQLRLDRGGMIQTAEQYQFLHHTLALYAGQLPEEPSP
Kind of data set: biochemical. Format: biochemical.

In the next data set the target is SHP1-D1C (Homo sapiens, UniProt P29350). Kind of data set: biochemical.
Sequence of SHP1-D1C (P29350 244-528 limits assumed): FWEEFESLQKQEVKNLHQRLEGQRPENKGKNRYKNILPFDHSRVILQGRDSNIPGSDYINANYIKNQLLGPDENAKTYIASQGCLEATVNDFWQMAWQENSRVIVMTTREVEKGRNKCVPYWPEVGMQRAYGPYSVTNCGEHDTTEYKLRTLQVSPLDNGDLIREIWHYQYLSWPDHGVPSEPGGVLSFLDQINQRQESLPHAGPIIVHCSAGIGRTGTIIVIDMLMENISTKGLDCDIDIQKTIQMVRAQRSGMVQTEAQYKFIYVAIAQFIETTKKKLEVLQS

Sequence of SHP1 (P29350 whole entry): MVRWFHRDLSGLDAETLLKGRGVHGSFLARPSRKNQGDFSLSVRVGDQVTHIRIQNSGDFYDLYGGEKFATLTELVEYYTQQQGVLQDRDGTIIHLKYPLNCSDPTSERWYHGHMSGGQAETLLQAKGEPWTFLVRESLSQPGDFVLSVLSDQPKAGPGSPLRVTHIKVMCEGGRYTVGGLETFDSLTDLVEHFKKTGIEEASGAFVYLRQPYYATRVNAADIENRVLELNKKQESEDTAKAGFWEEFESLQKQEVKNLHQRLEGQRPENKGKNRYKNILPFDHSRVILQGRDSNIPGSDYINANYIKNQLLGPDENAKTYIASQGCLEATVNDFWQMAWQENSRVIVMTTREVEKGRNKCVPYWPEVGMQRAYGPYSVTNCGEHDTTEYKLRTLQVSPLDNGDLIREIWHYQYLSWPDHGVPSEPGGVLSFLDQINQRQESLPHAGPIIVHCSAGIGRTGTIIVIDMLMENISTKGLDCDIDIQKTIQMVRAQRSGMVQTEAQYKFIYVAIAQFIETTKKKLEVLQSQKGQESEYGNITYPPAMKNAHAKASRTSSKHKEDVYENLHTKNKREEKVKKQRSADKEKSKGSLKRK
Sequence of mPTPA (P9WIA1 whole entry): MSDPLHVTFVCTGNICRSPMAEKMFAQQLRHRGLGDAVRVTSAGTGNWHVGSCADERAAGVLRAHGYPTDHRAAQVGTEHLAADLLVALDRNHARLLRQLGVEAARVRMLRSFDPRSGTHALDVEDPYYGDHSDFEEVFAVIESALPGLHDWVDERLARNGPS

`O=C(O)c1cc2c(C#Cc3cccc(C(F)(F)F)c3)c(-c3ccccc3)oc2cc1O` [32 (L01Z08)]: the “ERK phosphorylation / ERK1/2 activity” value in [1] was “normal or near normal levels”. Besides, the IC50 (in general, the midpoint of a concentration-inhibition curve) was 2.3 ± 0.3 µM against SHP1 and 5.7 ± 0.4 µM at TC-PTP. In addition, the “clearance ranking among the three compounds” value in data set [2] (mice) was “slowest clearance of the three”. In addition, the “Clearance % LPF” value in [2] (mice, IV 5 mg/kg) came out at 28.9 % LPF; in [2] (mice, PO 25 mg/kg), 38.2 % LPF. In data set [2] (mice, PO 25 mg/kg), the “Vdss” value stood at 6.58 L/kg. Also, the “clearance” value in data set [2] (mice, PO 25 mg/kg) was 20.602 mL/min/kg; in data set [2] (mouse, blood, mice, IV 5 mg/kg, data normalized to 25 mg/kg dose, read-out: Clearance (converted)), 15.6 mL/min/kg. Also, in data set [2] (mice, after oral delivery), the “time active levels (sufficient to inhibit target activity by 80% in cells) maintained” value came to 18.5 h. The Tmax – broadly, the time at which the peak concentration occurs – in [2] (mouse, blood, iv, 5 mg/kg, mice, IV 5 mg/kg) is 0.5 h. For the same compound, the half-life (usually how long it takes for the measured level to halve) in data set [2] (mouse, blood, mice, IV 5 mg/kg) was 4.1 h; in data set [2] (mouse, blood, mice, PO 25 mg/kg), 3.7 h. Besides, the Cmax was determined as 10200 ng/mL in [2] (mouse, blood, mice, IV 5 mg/kg, data normalized to 25 mg/kg dose, read-out: Cmax (ng/mL)); 25500 nM in [2] (mouse, blood, mice, IV 5 mg/kg, data normalized to 25 mg/kg dose, read-out: Cmax nM); 2880 ng/mL in data set [2] (mouse, blood, mice, PO 25 mg/kg, read-out: Cmax (ng/mL)); 7210 nM in [2] (mouse, blood, mice, PO 25 mg/kg, read-out: Cmax nM). Further, the Vd in data set [2] (mouse, blood, mice, IV 5 mg/kg, read-out: Vdss) came to 5.53 L/kg. Moreover, in [2] (mouse, blood, mice, PO 25 mg/kg vs IV 5 mg/kg, read-out: Absolute Bioavailability (oral)), the bioavailability (in general, the share of a dose that reaches the circulation, judged against a reference dose that is usually intravenous) turned out to be 75.6%. In data set [2] (oral, 24 hours), the “oral pK values over the 24 hour duration of the assay” value is recorded as “remain relatively constant”. The “caspase 3 activity” value in [3] is recorded as “returns caspase 3 activity to near normal levels”.
For `Cn1c(-c2ccccc2C(F)(F)F)c(I)c2cc(C(=O)O)c(O)cc21` [Compound 207a, 6-hydroxy-3-iodo-1-methyl-2-(2-(trifluoromethyl)phenyl)-1H-indole-5-carboxylic acid], the half-inhibitory concentration (IC50) at Lyp came out at 75 ± 4 µM; on mPTPA, 82 ± 1 µM; against HePTP, 86 ± 6 µM; against SHP1-D1C it was 86.8 ± 0.4 µM.
